Several values for one entry are separate records, joined by “and”; a condition that tells them apart may be missing. Identical values can stand only once. Non-standard residues stand in square brackets, D forms with d. Residues, ends and D or L forms follow the SMILES beside them. Nva = CCC[C@H](N)C(=O)O
Tests used:
[1] = test system: AdipoR1 and AdipoR2 in HepG2 cells; assay: RNA interference (AdipoR1/AdipoR2 siRNA) in PA induced HepG2: PPARα, PPARγ mRNA and protein; assay type: cell-based, human; conditions: PA induced HepG2, 200 μM JT003; in words
Procedure: AdipoR1 and AdipoR2 siRNA as well as mock siRNA were chemically synthesized (GenePharma, China) and transfected into 60–70% confluent HepG2 and LX2 cells using Lipofectamine 3000 (ThermoFisher Scientific, USA). Dilution of siRNA and Lipofectamine 3000 reagents as well as the transfection of cells were performed following the manufacturer’s protocol. For HepG2 cell model, 5E5 cells were plated in 6-well plates and transfected with 5 μL of 20 μM stock siRNA. At 48 h following transfection, the cells were processed for 0.25 mM PA and/or 200 μM JT003 treated for another 24 h. BSA was used as the negative control. […]
Liver total RNA was extracted by using Trizol reagent following the manufacture’s instruction (TransGen Biotech, China). The concentration of RNA was measured by Nanodrop 2000 (ThermoFisher Scientific, USA). cDNA was transcribed from 10ug total RNA with First Strand cDNA synthesis Super Mix (TransGen Biotech, China). […] Reference gene β-actin was used for data normalization. mRNA expression was analyzed with specific primers listed in Supplementary Table 2.
Total protein was isolated from cells or liver samples using RIPA lysis buffer (50.0 mM Tris-HCl (pH = 8.0), 150.0 mM NaCl, 0.02% NaN3, 0.1% SDS, 1% NP-40, 0.5% deoxysodium cholate, 1 mM EDTA, […]). The protein concentration was quantified with BCA kit (Pierce, ThermoFisher Scientific, USA). […]

[2] = Pharmacokinetic assay in SD rats; assay type: in vivo, rat
Procedure: Male SpragueDawley (SD) rats were randomly divided into two groups (n = 3 per group) and received a single intravenous dose of JT003 (0.5 mg/kg) or ADP355 (1.0 mg kg^−1) respectively. Blood samples were collected at 5, 15, 30, 45 min and 1, 2, 3 h following the injection, and then were immediately centrifuged (4000g, 10 min, 4 °C) to obtain plasma samples. Plasma concentrations of the two peptides were measured by LC-MS/MS (ThermoFisher Scientific, USA). Pharmacokinetic parameters of JT003 and ADP355 were calculated using non-compartmental analysis in Phoenix WinNonlin (version 8.0, Pharsight, USA). The concentration values less than the LLOQ were set to zero for the analysis.

HepG2 cells = assay: PA induced lipid accumulation, Oil Red O staining; assay type: cell-based, human; conditions: HepG2, 0.25 mM PA + 200 μM peptide, 24 h; in words
Procedure: Hepatoma carcinoma cell line HepG2 and human hepatic activated stellate cell line LX2 used in this study were purchased from Type Culture Collection of the Chinese Academy of Sciences (Shanghai, China). Cells were cultured in Dulbecco’s modified Eagle’s medium (DMEM) with 10% fetal bovine serum (FBS), supplemented with 1% penicillin–streptomycin (ThermoFisher Scientific, USA) at 37 °C in a humidified atmosphere of 5% CO2. In PA (Sigma, USA) induced lipid accumulation cell model, HepG2 cells were seeded into a 6-well plate at 5E5 cells per well. 0.25 mM PA and/or 200 μM candidate peptides were co-incubated with cells for 24 h. Then Oil Red O staining was performed to evaluate the accumulation of lipid droplets. BSA (Sigma, USA) was used in this experiment as the negative control. For LX2 cells, 2E5 cells were seeded, then the adherent cells were exposed to 200 μM candidate peptides for another 48 h. Next, the cell protein was obtained and western blotting was performed. Candidate peptides were diluted in DMEM in a stock concentration of 1 M.

[3] = test system: liver protein expression of CCl4 induced liver fibrosis mice; assay: CCl4 mice: liver western blot; assay type: in vivo, mouse
Procedure: Male mice liver fibrosis was induced by intraperitoneal injection of 20% CCl4 (Sigma, USA) diluted in corn oil (Aladdin, China) every 3 days for 6 weeks (n = 6; 5 ml kg^−1 body weight). Mice injected with equivalent volume of corn oil serves as control group (n = 6). Liver fibrosis mice treated with JT003 for 3 weeks were used to evaluated the pharmacological effects (n = 6; 500 μg kg^−1; daily intraperitoneal injection).
Total protein was isolated from cells or liver samples using RIPA lysis buffer (50.0 mM Tris-HCl (pH = 8.0), 150.0 mM NaCl, 0.02% NaN3, 0.1% SDS, 1% NP-40, 0.5% deoxysodium cholate, 1 mM EDTA, […]). The protein concentration was quantified with BCA kit (Pierce, ThermoFisher Scientific, USA). Thirty micrograms protein were separated by 10 or 12% sodium dodecyl sulfate-polyacrylamide gel electrophoresis depending on the band of target protein, then transferred onto equilibrated polyvinylidene difluoride membrane (PVDF, Immobilon®-PSQ transfer membranes, Merck Millipore, Germany). Membranes were incubated with primary antibodies overnight at 4 °C. Specific antibodies were listed in Supplementary Table 3. After incubation with the secondary antibody, proteins were detected by enhanced chemiluminescence (Glarity^TM Western ECL Substrate, Bio-Rad, USA) and the signals were recorded and quantified with Tanon-Image Software (Shanghai, China). Reference antibody GAPDH were used for data normalization.

[4] = Sprague-Dawley, rat, male SD rats, single iv dose: JT003 0.5 mg/kg, ADP355 1.0 mg/kg, plasma, LC-MS/MS, non-compartmental, Mean ± SD, n = 3-6
[5] = Figure 7e, liver western blot, CCl4 + JT003 group, single replicates, n = 4
[6] = Figure 7f, liver western blot, CCl4 + JT003 group, single replicates, n = 4

In the case of `CCC[C@H](NC(=O)[C@@H]1CCCN1)C(=O)N[C@@H](CC(C)C)C(=O)N[C@@H](Cc1ccc(O)cc1)C(=O)N[C@@H](Cc1ccc(O)cc1)C(=O)N[C@@H](Cc1ccccc1)C(=O)N[C@@H](C)C(N)=O` [JT003] (H-P[Nva]LYYFA-NH2), the “effect of AdipoR1 and/or AdipoR2 siRNA on JT003 mediated PPARα and PPARγ expression” value [1] is reported as “blocked the JT003 effects on mediating PPARα and PPARγ expression”, the AUC(0-inf) [2, 4] is reported as 20.9 ± 1.63 ng·h/mL and the AUC(0-t) [2, 4] is reported as 19.4 ± 1.51 ng·h/mL. It also gave an MRT [2, 4] of 62.4 ± 1.8 min, a clearance [2, 4] of 401 mL/min/kg and a Vd ([2]; Sprague-Dawley, rat, male SD rats, single iv dose: JT003 0.5 mg/kg, ADP355 1.0 mg/kg, plasma, LC-MS/MS, non-compartmental, Mean ± SD, n = 3-6, read-out: V) of 26 ± 2.29 L/kg. The t1/2 ([2]; male SD rats, single iv dose: JT003 0.5 mg/kg, ADP355 1.0 mg/kg, plasma, LC-MS/MS, non-compartmental, Mean ± SD, n = 3-6 (n = 3 per group)) was 45 ± 0.6 min and 45 min, the “improved circulating half-life vs the predecessor compound (ADP355)” value ([2]; reviewer's reading of the PK experiment) was 7-8 fold and the “lipid droplets accumulation caused by PA (Oil Red O)” value (HepG2 cells) was “exhibited the best potential”. For the same compound, the “NFκB (western blotting)” value ([3]; CCl4 fibrosis mice, liver, JT003 500 μg kg−1, in words) was “significantly downregulated”, the “phosphorylation levels of JNK, eIF2α and PERK” value ([3]; CCl4 induced fibrosis mice, liver, JT003 500 μg kg−1, in words) was “decreased phosphorylation levels” and the “αSMA and COL1α1 (western blot, liver)” value ([3]; CCl4 mice, JT003 500 μg kg−1, in words) was “significant downregulation”. The pJNK/JNK [3, 5] was 0.7206 and 0.4902 and 0.6285 and 0.438, the pPERK/PERK [3, 5] was 0.5616 and 0.9445 and 0.6641 and 0.5949 and the peIF2a/eIF2a [3, 5] was 1.116 and 0.4247 and 0.9192 and 0.3729. The CYP2E1/GAPDH [3, 6] was 1.469 and 1.0581 and 1.298 and 1.11, the PGC1a/GAPDH [3, 6] was 2.2635 and 2.209 and 2.565 and 2.497 and the “anti-PP65 / anti-P65 western blot quantification” value ([3]; Figure 6d, liver, CCl4 + JT003 group, single replicates, n = 4) was 0.3517 and 0.3717 and 0.2194 and 0.5295.

From article PMC7669869, “AdipoR1/AdipoR2 dual agonist recovers nonalcoholic steatohepatitis and related fibrosis via endoplasmic reticulum-mitochondria axis” (Nature Communications, 2020)
